Activity calls are given as the source filed them. No cut-off for these calls is given here.
Tests used:
MIA PaCa-2 [1] = assay: Preferential cytotoxicity against human MIA PaCa-2 cells in nutrient-deprived medium measured after 24 hrs by WST-8 cell counting analysis; assay type: functional
MIA PaCa-2 [2] = assay: Preferential cytotoxicity against human MIA PaCa-2 cells in DMEM measured after 24 hrs by WST-8 cell counting analysis; assay type: functional, cell-based; conditions: MIA PaCa-2, 24 h
PANC-1 [3] = assay: Preferential cytotoxicity against human PANC-1 cells in DMEM measured after 24 hrs by WST-8 cell counting analysis; assay type: functional, cell-based; conditions: PANC-1, 24 h
[4] = Selectivity index, ratio of IC50 for preferential cytotoxicity against human MIA PaCa-2 cells in DMEM to PC50 for preferential cytotoxicity against human MIA PaCa-2 cells in nutrient-deprived medium; assay type: functional
[5] = Selectivity index, ratio of IC50 for preferential cytotoxicity against human PANC-1 cells in DMEM to PC50 for preferential cytotoxicity against human PANC-1 cells in nutrient-deprived medium; assay type: functional
PANC-1 [6] = assay: Preferential cytotoxicity against human PANC-1 cells in nutrient-deprived medium measured after 24 hrs by WST-8 cell counting analysis; assay type: functional
[7] = Toxicity in BALB/c/Nu/Nu mouse xenografted with human MIA PaCa-2 cells assessed as change in body weight at 60 mg/kg, ip administered 5 times a week for 4 weeks; assay type: organism-based; conditions: in vivo, 672 h
MIA PaCa-2 [8] = assay: Antitumor activity against human MIA PaCa-2 cells xenografted in BALB/c/Nu/Nu mouse assessed as reduction in final tumor weight at 60 mg/kg, ip administered 5 times a week for 4 weeks (reference value: […]); assay type: functional
MIA PaCa-2 [9] = assay: Antitumor activity against human MIA PaCa-2 cells xenografted in BALB/c/Nu/Nu mouse assessed as reduction in number of blood vessels in skin at 60 mg/kg, ip administered 5 times a week for 4 weeks; assay type: functional, organism-based
MIA PaCa-2 [10] = assay: Antitumor activity against human MIA PaCa-2 cells xenografted in BALB/c/Nu/Nu mouse assessed as tumor volume at 60 mg/kg, ip administered 5 times a week for 4 weeks and measured on day 32 (reference value: 1417 mm3); assay type: functional; conditions: time 32 day

SMILES	PC50 (MIA PaCa-2 [1]) [µM]	IC50 (MIA PaCa-2 [2]) [µM]	IC50 (PANC-1 [3]) [µM]	Selectivity Index [4]	Selectivity Index [5]	PC50 (PANC-1 [6]) [µM]	Activity [7]	Activity (MIA PaCa-2 [8]) [mg]	Activity (MIA PaCa-2 [9])	Activity (MIA PaCa-2 [10]) [mm3]
COc1cc(O)c(C(=O)[C@H]2CC=C(CCC=C(C)C)C[C@@H]2c2cccc(F)c2)c(O)c1 (relative stereo)	1.21	39.9	29.6	32.9	25.6	1.16	–	–	–	–
CC(C)=CCCC1=CC[C@H](C(=O)c2c(O)cccc2O)[C@@H](c2cc(F)cc(F)c2)C1 (relative stereo)	0.75	19.7	10.5	26.2	31.6	0.33	–	–	–	–
CC(C)=CCCC1=CC[C@H](C(=O)c2c(O)cccc2O)[C@@H](c2ccccc2Cl)C1 (relative stereo)	1.08	29	15.4	26.7	22.2	0.69	–	–	–	–
COc1cc(O)c(C(=O)[C@H]2CC=C(CCC=C(C)C)C[C@@H]2c2ccc(Cl)cc2)c(O)c1 (relative stereo)	3.02	71.9	39.1	23.8	94.5	0.41	–	–	–	–
CC(C)=CCCC1=CC[C@H](C(=O)c2c(O)cccc2O)[C@@H](c2ccc(Cl)cc2)C1 (relative stereo)	1.3	32.6	86	25	126.8	0.68	–	–	–	–
COc1cc(O)c(C(=O)[C@H]2CC=C(CCC=C(C)C)C[C@@H]2c2ccc(F)c(F)c2)c(O)c1 (relative stereo)	0.69	27.1	15.5	39.3	28.5	0.54	–	–	–	–
CC(C)=CCCC1=CC[C@H](C(=O)c2c(O)cccc2O)[C@@H](c2cccc(F)c2)C1 (relative stereo)	1.23	30.8	16	25.1	11.2	1.43	–	–	–	–
COc1cc(O)c(C(=O)[C@H]2CC=C(CCC=C(C)C)C[C@@H]2c2ccc(F)cc2)c(O)c1 (relative stereo)	1.01	> 100	> 100	–	–	0.39	–	–	–	–
CC(C)=CCCC1=CC[C@H](C(=O)c2c(O)cccc2O)[C@@H](c2ccc(F)cc2)C1 (relative stereo)	0.89	34.4	> 100	38.6	–	0.37	–	–	–	–
COc1cc(O)c(C(=O)[C@H]2CC=C(CCC=C(C)C)C[C@@H]2c2ccccc2F)c(O)c1 (relative stereo)	0.85	33.7	28.5	39.6	39.3	0.72	–	–	–	–
CC(C)=CCCC1=CC[C@H](C(=O)c2c(O)cccc2O)[C@@H](c2cccc(Cl)c2Cl)C1 (relative stereo)	0.62	20.3	10.5	32.9	23.5	0.45	–	–	–	–
COc1ccc([C@H]2CC(CCC=C(C)C)=CC[C@@H]2C(=O)c2c(O)cc(OC)cc2O)cc1 (relative stereo)	1.93	102	50	52.9	110	0.45	–	–	–	–
CC(C)=CCCC1=CC[C@H](C(=O)c2c(O)cccc2O)[C@@H](c2ccccc2)C1 (relative stereo)	1.79	58.2	47.2	32.5	117	0.4	–	–	–	–
COc1ccc(C(=O)[C@H]2CC=C(CCC=C(C)C)C[C@@H]2c2ccccc2)c(O)c1 (relative stereo)	59.3	> 100	24.2	–	3.3	7.32	–	–	–	–
CC(C)=CCCC1=CC[C@H](C(=O)c2c(O)cccc2O)[C@@H](c2c(F)cccc2F)C1 (single isomer, unassigned)	1.52	28.7	21.6	18.9	16.1	1.34	–	–	–	–
Nc1ccn([C@@H]2O[C@H](CO)[C@@H](O)C2(F)F)c(=O)n1 [GEMCITABINE]	–	–	–	–	–	–	Non-Toxic	227	Active	632

Source: ChEMBL document CHEMBL5576134, “Targeting Pancreatic Cancer with Novel Nicolaioidesin C Derivatives: Molecular Mechanism, In Vitro, and In Vivo Evaluations” (J Med Chem, 2024)
